Source: patent US20180126048A1, “NANOPARTICLE-MEDICATED GENETIC DELIVERY OF GROWTH INHIBITING GENES ON BALLOON ANGIOPLASTY TO SUPPRESS INTIMAL HYPERPLASIA” (Board of Education of the Vocational Schools in the County …, priority 2014, published 2018)

Test system: left carotid artery
Assay: Glycerol infusion into the artery (cannulation) during carotid injury surgery
Format: in vivo, rat
Conditions: glycerol infused into the artery, compared to glycerol coated on a balloon
Description: In total, nine surgeries were performed on nine separate rats. The initial two surgeries represented the first control group—standard left carotid artery injury surgeries. The next two surgeries comprised the second control group—rats which received a standard left carotid artery injury surgery, modified slightly to include a glycerol coating without nanoparticles-carried plasmids on the catheter to test whether or not the substance (without the shRNA-encoding plasmid) had any noteworthy effects on the artery and/or the overall health of the animal before the nanoparticle treatment was delivered. The balloon was immersed in glycerol until 100 μL had covered its surface. Another two surgeries served as an experimental group to compare the method of delivery with the glycerol-coated balloon to a more direct method of delivery: infusion. After the arteriotomy was performed, the artery was cannulated (filled) with a syringe of 100 μL of 50% glycerol and flushed. The procedure then proceeded as previously described. The last three surgeries served as the experimental group utilizing the nanoparticles suspended in the glycerol that coated the balloon.
Intimal hyperplasia was further quantified using a software program, Image J, developed by the National Institutes of Health, which calculates the intimal area through image analysis. […]

OCC(O)CO [glycerol]
blood clot formation after infusion: blood clot formation
